Experimental data: patent US5221616A, “Prevention of spontaneous complement activation in mammalian biological fluids” (Quidel Corporation, priority 1988, dated 1993)
“Also recorded” adds a separate entry of the source. One block for each compound: values may come before it.

How the values were obtained:
C3 [1] = molecular target: T1, C3 (Homo sapiens, UniProt P01024); assay: polyhydroxyl compounds in Buffer B mixed with EDTA-NHP: iC3b and C3d,g/iC3b fragment EIA; type: biochemical; conditions: 22° C. for 48 hr
T1 construct: 250 μL of freshly drawn EDTA-normal human plasma (EDTA-NHP); from tissue; host or cells: normal human blood plasma (EDTA plasma; in A12 also citrate and heparin plasma)
Protocol: (§1) An extensive series of experiments were conducted to examine the ability of a large variety of polyhydroxyl compounds to prevent the spontaneous activation of C in EDTA-NHP during in vitro storage at 22° C for 48 hr. EDTA-NHP was mixed with an equal volume of Buffer B containing the polyhydroxyl compound to be tested. In these experiments Buffer B consisted of 40 mM EDTA and 30 IU sodium heparin/mL dissolved in deionized water, pH 7.2. The final concentration of polyhydroxyl compound dissolved in Buffer B varied for each compound due to differences in solubility. For each set of experiments, EDTA-NHP was also diluted and mixed with an equal volume of PBS (untreated control). The EDTA-NHP samples mixed with each polyhydroxyl compound dissolved in Buffer B and the corresponding untreated controls were incubated at 22° C. for 48 hr, stored at -70° C. and subsequently assayed for C4d, iC3b, C3d,g/iC3b and Bb complement fragment levels as well as for circulating immune complex levels using the Raji Cell Replacement EIA. […] This conclusion was based upon the iC3b percent protection values determined for each of the polyhydroxyl compounds (treated samples) as listed in FIG. 14.
(§2) The concentrations, expressed as μg analyte/mL, of a number of different activation products of spontaneous complement activation were measured in the course of these experiments. In an effort to normalize the data obtained from the various determinations so that the results from different assays could be directly compared to one another, a percent protection value was calculated for each analyte measured. The precent protection values were calculated by dividing the μg analyte/mL in the non-incubated, time-zero control sample by the μg analyte/mL in the experimental sample, multiplied by 100%. A percent protection value of 70 to 130% for any given analyte measured in an experimental sample was considered to indicate that the invention formulation tested was fully effective at providing protection against the occurrence of spontaneous complement activation. Ideally, the effective composition formulation would provide full protection against the occurrence of spontaneous complement activation in a complement-containing sample for all of the analytes measured. In fact, this was the case with several polyhydroxyl compounds when they were present in sufficiently high concentrations in a preferred embodiment of the invention.
A plasma dilution of 1:50 and a serum dilution of 1:100 were used in the iC3b fragment EIA tests. The immunochemical reaction specificity of MoAb 013III-1.1.6.1 has been published previously in abstract form, W. P. Kolb, et al., Fed. Proc. 44:990 (1985).
A plasma dilution of 1:250 and a serum dilution of 1:500 were used in the C3d,g/iC3b EIA tests. […] 135:2015-2019 (1985); Y. Kanayama, et al., J. Immunol. Meth. 88:33-36 (1986). The immunochemical reaction specificity of the Cytotech MoAb 013III-31.4.3.2.2has been published previously in abstract form, W. P. Kolb, et al., FASEB Journal 2:A1834 (1988).

C4 [2] = assay: polyhydroxyl compounds in Buffer B mixed with EDTA-NHP: C4d fragment EIA; type: biochemical, human; conditions: 22° C. for 48 hr
Protocol: as §1, §2

C3 [3] = molecular target: T1, C3; assay: iC3b fragment EIA: spontaneous C3 activation in EDTA-NHP incubated with increasing concentrations of polyhydroxyl compound in water; type: biochemical; conditions: 22° C. for 48 hr; for spontaneous iC3b fragment production: increasing final concentrations of compound (galactose up to 2M)
Protocol: FIG. 1. […] 250 μL of freshly drawn EDTA-normal human plasma (EDTA-NHP) was mixed with 0 to 250 μL of 4M β-D-glucose dissolved in deionized water. All reaction mixtures were brought up to a final reaction volume of 500 μL using deionized water as the diluent. Each reaction mixture was mixed thoroughly, incubated at 22° C. for 48 hr and assayed for iC3b fragment levels. A non-incubated control (-70° C.) was prepared by mixing 1 part EDTA-NHP with 1 part 4M β-D-glucose dissolved in deionized water. This control reaction mixture was stored at -70° C. until it was assayed in the iC3b fragment EIA along with the incubated experimental samples.
Several different polyhydroxyl compounds were individually dissolved in deionized water to obtain solutions of each compound at a concentration approaching saturation at 22° C. Freshly drawn EDTA-NHP was mixed with increasing concentrations of the polyhydroxyl compound to be tested keeping the final reaction volumes constant. For example, 250 μL of freshly drawn EDTA-NHP was mixed with 0 to 250 μL of the concentrated polyhydroxyl solution to be tested. All reaction mixtures were brought up to a final reaction volume of 500 μL using deionized water as the diluent. Each reaction mixture was mixed thoroughly and incubated at 22° C. for 48 hr. A non-incubated control was prepared for each experiment by mixing 1 part EDTA-NHP with 1 part of the concentrated polyhydroxyl solution to be tested. This control mixture was held at -70° C. until it was thawed out, along with the other experimental samples, and assayed for the occurrence of spontaneous complement activation. For this initial set of experiments, iC3b fragment levels were quantitated in all test samples using the Cytotech monoclonal antibody based EIA procedure. The first analyte selected to be measured was iC3b since, based on previously published data as outlined above, it was anticipated that the C3 protein would be the most susceptible to spontaneous activation upon storage of EDTA-NHP in vitro.
All of the EIA tests employed in these studies utilized solid-phase monoclonal antibody capture assay kit procedures (Cytotech, Inc., San Diego, Calif.). The procedure was basically the same for each EIA kit. Briefly, in the first step of each EIA assay, 100 μL of standards, controls and diluted test specimens were incubated at 22° C., i.e., room temperature, in duplicate polystyrene microtiter wells precoated with a capture monoclonal antibody which specifically reacted with the complement fragment or complex under investigation. During this first incubation period, complement fragments or complexes were bound to the monoclonal antibody coated microassay wells. A wash cycle removed unbound materials.
In the second step, 50 μL of horseradish peroxidase (HRP)-conjugated purified IgG antibody, which reacted with the captured complement fragment or complex analyte, was added to each well and incubated at 22° C. A wash cycle removed unbound conjugate.
In the third step, 100 μL of the HRP enzyme substrate ABTS (0.034% ABTS and 0.0126% H2 O2 in 100 mM sodium citrate buffer, pH 4.0) was added to each well and incubated at 22° C. The bound HRP-conjugatedantibody reacted with the ABTS substrate producing a green color which was proportional to the amount of specimen analyte bound. The HRP-enzymatic reaction was stopped upon addition of 50 μL 250 mM oxalic acid. The substrate color intensity present in each well was measured at 405 nm using an automated EIA microplate reader and the analyte concentration/mL in the original test specimen was determined for each analyte from the appropriate standard curve.
iC3b EIA: The capture mouse monoclonal antibody used to coat microtiter wells for the iC3b fragment EIA was Cytotech MoAb 013III-1.1.6.1 which reacts with a neoantigenic determinant expressed on the iC3b activation fragment of human C3.

complement = assay: protection against spontaneous complement activation in complement-containing samples during in vitro storage (summary of fragment EIAs); type: biochemical, human; conditions: for final concentration identified as particularly effective: added to a complement-containing sample; for range of final concentrations found to provide protection against spontaneous complement activation: complement-containing samples during in vitro storage; for acceptable range of final concentration at which spontaneous C activation will be prevented: ingredient of the formulation
Protocol: A method for screening compounds to determine the complement preventing effectiveness thereof is described in detail in the course of the following experimental description and discussion. The method essentially comprises treating complement-containing samples with various doses of the test compounds, storing the thus-treated sample at conventional storage temperature for a minimum of about 48 hours and determining the extent of complement activation which occurs during the storage period by performing assays on the sample for various complement activation products. The results are compared with determination of the level of the same activation products at the beginning of the storage period, i.e., a non-incubated control sample. A non-treated control, comprising an identical sample diluted with phosphate buffered saline (PBS) in a volume ratio identical to that of the sample and polyhydroxyl solution is similarly assayed.
as §2
A percent protection value range of 70 to 130% was used as a criterion to define that a given invention embodiment was able to provide full protection against spontaneous complement activation for the following reasons: The coefficient of variation for the EIA kits employed in these studies ranged from 10-30% when analyte levels were measured in the very low range of values found in freshly-drawn normal human plasma samples. Therefore, in order to ensure that a given result fell within the variability range of the assays employed, a percent protection value between 70 and 130% was considered to represent a fully protective effect.

[4] = tested on: C3, Factor B, or the terminal complement proteins; assay: effect of sodium heparin on storage behavior of other complement proteins; type: biochemical, human; conditions: sodium heparin in the stabilizing formulation
C4 [5] = assay: C4d fragment EIA: heparin plasma or heparin whole blood stored on ice or at 22° C.; type: biochemical, human
Protocol: The first set of experiments addressed the question of how long can a human complement-containing sample be incubated at various temperatures in vitro before evidence of spontaneous C activation can be measured. In FIG. 16 results are presented in which freshly drawn EDTA-NHP, heparin plasma, heparin whole blood or EDTA whole blood were stored on ice (1° C.) or at 22° C. […] In the case of the whole blood samples, the cells were removed by centrifugation before the plasma supernatants were collected and stored at -70° C. […] The other components of the invention composition are also required in order to obtain full protection against spontaneous C activation. This point will be covered in further detail below.

[6] = tested on: coagulation system and fibrin clot formation; conditions: whole blood or plasma; cited from earlier work
complement system = conditions: plasma or serum; cited from earlier work

T1 sequence (P01024 672-1663 limits assumed): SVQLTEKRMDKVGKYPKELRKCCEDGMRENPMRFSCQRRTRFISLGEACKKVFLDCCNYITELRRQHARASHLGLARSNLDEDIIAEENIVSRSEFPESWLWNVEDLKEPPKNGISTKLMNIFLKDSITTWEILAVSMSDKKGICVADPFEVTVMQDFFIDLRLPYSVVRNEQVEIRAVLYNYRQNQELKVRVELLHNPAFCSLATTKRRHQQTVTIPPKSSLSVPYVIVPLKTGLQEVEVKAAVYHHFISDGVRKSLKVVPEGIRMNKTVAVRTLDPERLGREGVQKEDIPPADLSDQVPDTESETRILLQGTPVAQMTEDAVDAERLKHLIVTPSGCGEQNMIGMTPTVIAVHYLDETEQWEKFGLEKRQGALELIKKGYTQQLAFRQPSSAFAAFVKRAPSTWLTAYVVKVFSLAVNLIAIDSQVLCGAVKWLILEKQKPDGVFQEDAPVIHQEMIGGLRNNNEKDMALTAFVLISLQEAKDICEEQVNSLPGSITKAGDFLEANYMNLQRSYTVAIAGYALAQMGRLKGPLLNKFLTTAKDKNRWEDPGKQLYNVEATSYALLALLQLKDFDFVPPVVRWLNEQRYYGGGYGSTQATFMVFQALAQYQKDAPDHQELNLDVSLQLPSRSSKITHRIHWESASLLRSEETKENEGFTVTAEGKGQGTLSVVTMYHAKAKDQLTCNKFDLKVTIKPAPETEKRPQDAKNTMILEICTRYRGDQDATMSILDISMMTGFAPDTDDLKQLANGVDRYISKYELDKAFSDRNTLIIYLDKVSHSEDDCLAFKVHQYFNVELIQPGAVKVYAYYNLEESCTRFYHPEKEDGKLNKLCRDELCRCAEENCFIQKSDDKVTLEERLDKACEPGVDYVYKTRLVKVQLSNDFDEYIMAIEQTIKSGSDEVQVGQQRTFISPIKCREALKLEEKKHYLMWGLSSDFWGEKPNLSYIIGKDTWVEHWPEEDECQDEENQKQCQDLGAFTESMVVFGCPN
T1 sequence (P01024 23-667 limits assumed): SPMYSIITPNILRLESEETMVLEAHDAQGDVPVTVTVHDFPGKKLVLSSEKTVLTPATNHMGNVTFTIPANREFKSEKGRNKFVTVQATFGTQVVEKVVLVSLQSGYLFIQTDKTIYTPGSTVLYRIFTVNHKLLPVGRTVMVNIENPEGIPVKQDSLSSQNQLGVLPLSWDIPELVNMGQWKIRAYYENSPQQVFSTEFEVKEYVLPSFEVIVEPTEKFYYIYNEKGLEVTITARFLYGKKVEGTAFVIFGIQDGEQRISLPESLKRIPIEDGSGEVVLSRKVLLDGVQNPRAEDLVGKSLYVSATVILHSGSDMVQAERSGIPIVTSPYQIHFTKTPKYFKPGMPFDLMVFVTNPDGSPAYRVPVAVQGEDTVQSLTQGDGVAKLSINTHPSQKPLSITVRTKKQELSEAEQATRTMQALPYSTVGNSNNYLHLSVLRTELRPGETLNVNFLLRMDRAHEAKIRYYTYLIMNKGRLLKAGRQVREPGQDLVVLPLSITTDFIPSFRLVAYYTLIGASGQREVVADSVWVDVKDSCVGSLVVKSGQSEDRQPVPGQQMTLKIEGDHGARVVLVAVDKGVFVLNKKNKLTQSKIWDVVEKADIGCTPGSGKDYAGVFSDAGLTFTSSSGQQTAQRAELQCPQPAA

prevention of spontaneous activation of C3 (C3 [1]; final concentration 2M): ineffective
Compound: N[C@@H]1C(O)O[C@H](CO)[C@@H](O)[C@@H]1O (stereo partly drawn) [D-mannosamine]

Compound: OC[C@H]1O[C@H](OC[C@H]2O[C@H](O[C@]3(CO)O[C@H](CO)[C@@H](O)[C@@H]3O)[C@H](O)[C@@H](O)[C@@H]2O)[C@H](O)[C@@H](O)[C@H]1O [D-raffinose]
prevention of spontaneous activation of C3 (C3 [1]; final concentration 1.5M): ineffective; also recorded: unable to inhibit
prevention of spontaneous activation of C4 (C4d fragment production) (C4 [2]; final concentration 1.5M): unable to inhibit

prevention of spontaneous activation of C3 (C3 [1]; final concentration 0.5M): ineffective
Compound: N[C@H]1C(O)O[C@H](CO)[C@@H](O)[C@@H]1O (stereo partly shown) [glucosamine]

spontaneous iC3b fragment production (C3 [3]): inhibited with increasing concentrations
Compound: OC[C@H]1O[C@H](OC[C@H]2OC(O)[C@H](O)[C@@H](O)[C@@H]2O)[C@H](O)[C@@H](O)[C@H]1O (stereo partly shown) [melibiose]
final concentration identified as particularly effective (complement): ≥ 1.5 M
range of final concentrations found to provide protection against spontaneous complement activation (complement): 0.6 to 4 M

Compound: OC[C@H]1O[C@@H](OC[C@H]2OC(O)[C@H](O)[C@@H](O)[C@@H]2O)[C@H](O)[C@@H](O)[C@@H]1O (stereo partly shown) [gentiobiose]
spontaneous iC3b fragment production (C3 [3]): inhibited with increasing concentrations
final concentration identified as particularly effective (complement): ≥ 1.5 M
range of final concentrations found to provide protection against spontaneous complement activation (complement): 1.0 to 4 M

prevention of spontaneous activation of C3 (C3 [1]; final concentration 0.5M): ineffective
Compound: O[C@H]1[C@H](O)[C@@H](O)[C@H](O)[C@@H](O)[C@H]1O [inositol]

Compound: OC[C@@H](O)[C@@H](O)[C@H](O)[C@H](O)CO [D-mannitol]
prevention of spontaneous activation of C3 (C3 [1]; final concentration 1.5M): ineffective; also recorded: unable to inhibit
prevention of spontaneous activation of C4 (C4d fragment production) (C4 [2]; final concentration 1.5M): unable to inhibit

Compound: sodium heparin
effect on storage behavior of C3, Factor B, or the terminal complement proteins [4]: does not improve the storage behavior
acceptable range of final concentration at which spontaneous C activation will be prevented (complement): 15-60 IU/mL
prevention of spontaneous activation of C4 (C4 [5]; heparin alone, 22° C for as long as 24 hr): not sufficient to prevent
time without clear evidence of spontaneous C4 activation (C4 [5]; plasma or whole blood collected in sodium heparin, 1° C. or 22° C.): ≥ 6 h

Compound: O=C(O)CN(CCN(CC(=O)O)CC(=O)O)CC(=O)O [EDTA, ethylene diamine tetraacetic acid]
acceptable range of final concentration at which spontaneous C activation will be prevented (complement): 1 to 40 mM
final concentration that inhibits activation of the coagulation system and fibrin clot formation [6]: ≥ 1 mM
final concentration that inhibits activation of the complement system (complement system): ≥ 1 mM

spontaneous iC3b fragment production (C3 [3]): inhibited with increasing concentrations
Compound: OC[C@H]1O[C@@](CO)(O[C@H]2O[C@H](CO)[C@@H](O)[C@H](O)[C@H]2O)[C@@H](O)[C@@H]1O [sucrose]
final concentration identified as particularly effective (complement): ≥ 1.75 M
range of final concentrations found to provide protection against spontaneous complement activation (complement): 1.2 to 4 M

Compound: galactose
spontaneous iC3b fragment production (C3 [3]): only slight inhibition
prevention of spontaneous activation of C3 (C3 [1]; final concentration 2M): ineffective

prevention of spontaneous activation of C3 (C3 [1]; final concentration 2M): ineffective
Compound: O=CC[C@H](O)[C@H](O)CO [2-deoxy-D-ribose]
prevention of spontaneous activation of C4 (C4d fragment production) (C4 [2]; final concentration 2M): able to prevent

final concentration that completely prevented spontaneous iC3b fragment production (C3 [3]; compared with -70° C. control): ≥ 1.3 M
spontaneous iC3b fragment production (C3 [3]): inhibited with increasing concentrations
Compound: OC[C@H]1O[C@H](O[C@H]2O[C@H](CO)[C@@H](O)[C@H](O)[C@H]2O)[C@H](O)[C@@H](O)[C@@H]1O [trehalose]
final concentration identified as particularly effective (complement): ≥ 1.3 M
range of final concentrations found to provide protection against spontaneous complement activation (complement): 0.6 to 3.5 M
